{"source": "paper PMC6701825", "about": "“Antiproliferative and Antimigratory Effects of a Novel YAP–TEAD Interaction Inhibitor Identified Using in Silico Molecular Docking” (Journal of Medicinal Chemistry, 2019)", "molecular_target": "T1, TEAD1 (Homo sapiens, UniProt P28347)", "T1 construct": "#18881 (FLAG-YAP); host or cells: HeLa", "T1 sequence (P28347 whole entry, the tested form may be a part)": "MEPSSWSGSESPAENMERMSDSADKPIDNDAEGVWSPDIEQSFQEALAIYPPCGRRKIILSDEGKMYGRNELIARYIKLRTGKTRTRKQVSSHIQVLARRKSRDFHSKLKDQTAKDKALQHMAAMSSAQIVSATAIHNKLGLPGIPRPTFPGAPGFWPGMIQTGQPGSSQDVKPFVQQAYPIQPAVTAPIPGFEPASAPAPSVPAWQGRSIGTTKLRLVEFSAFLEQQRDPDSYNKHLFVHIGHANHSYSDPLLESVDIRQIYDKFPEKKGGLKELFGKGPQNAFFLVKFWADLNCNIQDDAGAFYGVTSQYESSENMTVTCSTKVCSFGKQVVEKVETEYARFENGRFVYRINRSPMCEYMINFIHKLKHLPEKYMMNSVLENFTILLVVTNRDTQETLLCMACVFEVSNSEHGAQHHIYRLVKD", "assay": "GAL4-TEAD1 fusion / 5xGAL4-secNLUC reporter in HeLa cells", "type": "cell-based", "settings": "100 μM, 6 h", "excerpt": "TEAD proteins (TEAD1–4) display a high degree of sequence conservation in residues that create the hydrophobic pocket that is essential for YAP binding.[51] YAP proteins also display a high degree of conservation in residues that interact with this pocket.[51] We therefore tested whether CPD3.1 was able to inhibit YAP-induced activity of TEAD1, TEAD2, TEAD3, and TEAD4. To quantify the effect of CPD3.1 on the activity of each individual TEAD paralog, while excluding interference from endogenously expressed TEAD1–4 proteins, we expressed each TEAD paralog (TEAD1–4) fused to the yeast GAL4 DNA-binding domain. Cells were transfected with the GAL4–TEAD expression vector together with a secreted nanoluciferase reporter gene vector under control of a promoter containing five GAL4 DNA-binding elements. This system allows us to study the effect of CPD3.1 on the activity of each individual TEAD protein in isolation, without interference from endogenously expressed transcription factors. In addition, the cells were co-transfected with a YAP expression vector to activate the GAL4–TEAD fusion-dependent transcription (see Supplement Figure 9). Basal activities of TEAD1, TEAD2, TEAD3, and TEAD4 were inhibited by CPD3.1 (Figure 7A–D). […]\nFigure 7 Compound 3.1 inhibits TEAD1, TEAD2, TEAD3, and TEAD4 activities. […] Secreted nano-luciferase activity was quantified in the conditioned media. […]"}
{"smiles": "Cc1ccc2c(c1)c1c3n2CCNC3CCC1", "note": "(centres unmarked) [CPD3.1]", "values": [{"measurement": "basal activity of GAL4-TEAD1", "value": "inhibited"}, {"measurement": "YAP-stimulated activity of GAL4-TEAD1", "setting": "YAP overexpression", "value": "significantly inhibited"}]}
